Experimental findings from patent US20100331297A1, “MODULATION OF PROTEIN TRAFFICKING” (FOLDRX PHARMACEUTICALS, INC., priority 2007, published 2010) are described below.

Format in all cases: cell-based
In one assay the test system is ypt1^ts cells. Description: Rescue of growth of ypt1^ts mutant yeast (OD600). The following applies: Saccharomyces cerevisiae, read-out: Ypt1-ts MRC (Minimum Rescue Concentration), ypt1^ts cells, 35° C. and 37° C., OD600; multiple results separated by a comma. The gist of the method: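 Log-phase ypt1^ts cells (N121I/A161V) in SC 2% glucose were diluted to OD600 0.003 and treated with compound at 50 μM-0.05 μM final in 1% DMSO. Cultures were incubated at 35° C. (read at 24 and 40 h) or 37° C. (read at 40 h), with rescue measured as OD600 growth and reported as minimum rescue concentration.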

Assay [1] has as its target T1, ΔF508 CFTR (Homo sapiens, UniProt P13569, DEL508-508). As to the kind of experiment: Ussing chamber assay, short-circuit current in FRT cells stably expressing ΔF508 CFTR. Set-up: expressed in transfected cells; host or cells: Fischer rat thyroid (FRT) cells. The conditions noted are these: FRT ΔF508 CFTR monolayers treated 24 hours; forskolin, isobutylmethylxanthine, genistein. The protocol:
Ussing Chamber Assay: Fischer rat thyroid (FRT) cells stably expressing ΔF508 CFTR (cystic fibrosis transmembrane conductance regulator) were cultured as previously described in Am J. Physiol. (1994) 266 L405-413. Monolayers of cells were grown on Snapwell inserts (Corning Inc.) at the air/liquid interface. The monolayers were treated with compound for 24 hours. The inserts are mounted in Ussing chambers (Harvard Apparatus) and short-circuit currents are measured using a voltage clamp apparatus (WPI, Inc.). A mucosal to serosal gradient in chloride concentration is imposed and the basolateral membrane is permeabilized using amphotericin. Short circuit currents are measured upon addition of the agonists forskolin, isobutylmethylxanthine, and genistein to maximally activate CFTR.

The target in assay [2] is T1, ΔF508 CFTR. Description: Corrector activity, YFP halide (iodide) quenching assay in FRT cells expressing ΔF508 CFTR. Set-up: expressed in transfected cells; host or cells: Fischer rat thyroid (FRT) cells. The following applies: Corrector EC50, FRT cells ΔF508 CFTR/YFP, 24 hours with compound at 37° C., forskolin and genistein. The gist of the method:
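FRT cells co-expressing ΔF508 CFTR and halide-sensitive YFP were incubated 24 h at 37° C with compounds, then stimulated 30 min at 37° C in PBS with forskolin and genistein. Endpoint fluorescence after iodide injection was normalized to initial reading; EC50 from 4-parameter fit with bottom constrained to DMSO control.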

Structures are written as SMILES. pEC50: −log10 of the molar value.

T1 sequence (P13569 with tags, fused parts or gaps DEL508-508): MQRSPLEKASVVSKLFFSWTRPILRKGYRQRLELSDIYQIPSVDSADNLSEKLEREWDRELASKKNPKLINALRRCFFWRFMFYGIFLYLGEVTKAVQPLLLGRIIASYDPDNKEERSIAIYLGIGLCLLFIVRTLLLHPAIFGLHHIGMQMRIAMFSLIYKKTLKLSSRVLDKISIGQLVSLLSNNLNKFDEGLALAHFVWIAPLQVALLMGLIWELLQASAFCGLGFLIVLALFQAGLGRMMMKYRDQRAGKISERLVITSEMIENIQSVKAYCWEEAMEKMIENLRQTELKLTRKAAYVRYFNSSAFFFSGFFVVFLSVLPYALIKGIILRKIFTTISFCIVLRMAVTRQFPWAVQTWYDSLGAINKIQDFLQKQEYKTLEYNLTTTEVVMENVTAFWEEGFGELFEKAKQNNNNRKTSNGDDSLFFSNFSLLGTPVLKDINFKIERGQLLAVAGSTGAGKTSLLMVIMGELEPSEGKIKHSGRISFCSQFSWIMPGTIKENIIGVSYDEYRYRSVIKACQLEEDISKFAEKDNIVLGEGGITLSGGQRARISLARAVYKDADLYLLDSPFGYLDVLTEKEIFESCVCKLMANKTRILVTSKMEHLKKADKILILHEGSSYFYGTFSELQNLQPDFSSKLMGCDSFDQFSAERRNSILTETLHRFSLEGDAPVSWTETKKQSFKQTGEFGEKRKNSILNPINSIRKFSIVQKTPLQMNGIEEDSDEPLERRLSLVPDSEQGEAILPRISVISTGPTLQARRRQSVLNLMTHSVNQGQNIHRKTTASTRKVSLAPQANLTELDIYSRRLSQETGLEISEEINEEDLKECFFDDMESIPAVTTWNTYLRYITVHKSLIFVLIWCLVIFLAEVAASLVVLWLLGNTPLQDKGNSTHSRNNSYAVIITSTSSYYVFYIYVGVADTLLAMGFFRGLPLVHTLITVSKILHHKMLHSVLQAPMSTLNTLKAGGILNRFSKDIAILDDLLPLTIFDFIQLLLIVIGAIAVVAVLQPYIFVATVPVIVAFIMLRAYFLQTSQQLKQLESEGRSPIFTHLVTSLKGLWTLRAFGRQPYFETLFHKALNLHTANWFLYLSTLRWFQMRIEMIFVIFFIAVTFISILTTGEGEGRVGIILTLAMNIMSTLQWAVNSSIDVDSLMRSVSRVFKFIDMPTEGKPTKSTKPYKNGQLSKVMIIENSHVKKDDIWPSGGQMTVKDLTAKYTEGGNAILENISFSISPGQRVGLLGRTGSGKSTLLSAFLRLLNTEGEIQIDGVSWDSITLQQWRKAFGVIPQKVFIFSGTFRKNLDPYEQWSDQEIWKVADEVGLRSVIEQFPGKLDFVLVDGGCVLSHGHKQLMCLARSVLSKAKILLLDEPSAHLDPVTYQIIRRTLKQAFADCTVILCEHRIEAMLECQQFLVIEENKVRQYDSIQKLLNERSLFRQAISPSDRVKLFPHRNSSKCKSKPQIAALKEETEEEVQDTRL

As to `CC(C)(C)n1nc(-c2ccc(Cl)cc2)c2c(N)ncnc21` [compound 25], in the assay on ypt1^ts cells, the minimal effective concentration is less than 10 µM. Further, at ΔF508 CFTR [1], the “short circuit current after the addition of all three agonists” value is roughly 65 uA/cm^2. At ΔF508 CFTR [2], the pEC50 is 5.30 to 5.70.

Usually pEC50 stands for the negative decadic logarithm of the EC50, by convention in mol/L.
